# Laboratory results published in patent US20170137855A1, “RECOMBINANT CELLS AND METHODS FOR NONPHOSPHORYLATIVE METABOLISM” (REGENTS OF THE UNIVERSITY OF MINNESOTA, priority 2015, published 2017).
# Values joined by “and” are separate entries in the source; they are usually repeats but may differ in a detail not shown here. Equal values may be shown once.
# Assays:
# [1] = biological target: T1, Caulobacter crescentus 2-keto-3-deoxy-D-xylonate dehydratase (XylX) (Caulobacter vibrioides, UniProt A0A0H3C4T2); assay: C. crescentus 2-keto-3-deoxy-D-xylonate dehydratase, coupled assay with KGSADH; type: biochemical; details: substrate from 0-20 mM D-xylonate, 1 mM NAD+, pH 7.5, 25° C.
# T1 construct: coupled with XylD and KGSADH; BlpI site removed in gene
# T1 sequence (A0A0H3C4T2 1-384): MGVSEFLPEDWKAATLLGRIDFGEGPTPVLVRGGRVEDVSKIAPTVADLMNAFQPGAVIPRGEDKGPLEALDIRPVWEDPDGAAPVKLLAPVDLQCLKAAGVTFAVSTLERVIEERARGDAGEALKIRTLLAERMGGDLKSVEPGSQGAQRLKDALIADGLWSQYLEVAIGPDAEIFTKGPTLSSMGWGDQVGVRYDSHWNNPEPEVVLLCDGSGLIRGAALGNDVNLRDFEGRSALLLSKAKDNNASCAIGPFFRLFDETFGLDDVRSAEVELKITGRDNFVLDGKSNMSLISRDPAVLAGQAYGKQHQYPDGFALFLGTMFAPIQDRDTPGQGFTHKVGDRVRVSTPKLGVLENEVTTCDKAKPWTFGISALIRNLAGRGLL
# Method: (§1) 2-Keto-3-deoxy-D-xylonate dehydratase (XylX/DR64-8450), 2-keto-3-deoxy-L-arabonate dehydratase (AraD) and 5-keto-4-deoxy-D-glucarate dehydratase (YcbC): Enzyme activities of XylX, DR64-8450, AraD and YcbC were assayed spectrophotometrically in a coupled assay with the corresponding previous dehydratase and 2-ketoglutaric semialdehyde dehydrogenase (KGSADH) as previously described (Watanabe et al., 2006. J Biol. Chem. 281:33521-33536). […] The reaction was initiated by adding an appropriate amount of 2-keto-3-deoxy-D-xylonate dehydratase (XylX/DR64-8450)/2-keto-3-deoxy-L-arabonate dehydratase (AraD)/5-keto-4-deoxy-D-glucarate dehydratase (YcbC), and the increasing absorbance at 340 nm caused by NADH produced in the reaction was monitored.
# [2] = biological target: T2, Burkholderia xenovorans LB400 2-keto-3-deoxy-D-xylonate dehydratase (DR64_8450) (Paraburkholderia xenovorans, UniProt Q13FD1); assay: B. xenovorans 2-keto-3-deoxy-D-xylonate dehydratase, coupled assay with KGSADH; type: biochemical
# T2 construct: coupled with D-xylonate dehydratase and KGSADH
# T2 sequence (Q13FD1 1-395): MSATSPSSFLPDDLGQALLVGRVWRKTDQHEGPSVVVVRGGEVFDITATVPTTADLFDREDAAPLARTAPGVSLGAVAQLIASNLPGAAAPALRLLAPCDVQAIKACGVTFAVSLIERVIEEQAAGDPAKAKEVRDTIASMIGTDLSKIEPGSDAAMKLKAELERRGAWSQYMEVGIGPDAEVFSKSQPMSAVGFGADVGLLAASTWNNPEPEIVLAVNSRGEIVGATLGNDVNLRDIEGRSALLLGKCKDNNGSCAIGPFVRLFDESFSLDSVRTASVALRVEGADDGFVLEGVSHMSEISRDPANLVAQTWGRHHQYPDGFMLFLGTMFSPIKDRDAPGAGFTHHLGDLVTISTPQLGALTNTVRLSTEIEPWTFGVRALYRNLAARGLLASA
# Method: as §1
# [3] = biological target: T3, Lactococcus lactis 2-ketoacid decarboxylase Kivd, wild type (Lactococcus lactis, UniProt Q684J7); assay: Kivd activity inferred from absence of BTO accumulation with L-arabinose as substrate; type: cell-based; details: indicated by no accumulation of BTO using L-arabinose
# T3 construct: also expressed from pBDO-5 in E. coli fermentation (A5)
# T3 sequence (Q684J7 1-548): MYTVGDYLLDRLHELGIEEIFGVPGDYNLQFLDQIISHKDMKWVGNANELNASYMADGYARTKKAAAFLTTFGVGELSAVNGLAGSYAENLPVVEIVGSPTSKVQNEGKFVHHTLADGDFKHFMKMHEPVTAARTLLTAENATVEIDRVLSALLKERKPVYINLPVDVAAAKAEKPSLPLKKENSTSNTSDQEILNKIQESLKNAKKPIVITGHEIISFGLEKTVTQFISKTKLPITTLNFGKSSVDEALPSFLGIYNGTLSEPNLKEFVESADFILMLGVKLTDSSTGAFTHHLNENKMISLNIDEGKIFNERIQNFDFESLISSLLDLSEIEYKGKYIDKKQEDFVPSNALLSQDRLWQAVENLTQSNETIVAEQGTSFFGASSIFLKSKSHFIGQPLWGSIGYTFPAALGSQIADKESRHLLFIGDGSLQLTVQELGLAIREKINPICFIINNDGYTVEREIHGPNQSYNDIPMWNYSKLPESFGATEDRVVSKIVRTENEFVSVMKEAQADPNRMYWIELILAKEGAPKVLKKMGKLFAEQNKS
# Method: 125 ml conical flasks with 0.2 g CaCO3 were autoclaved and dried to perform all small-scale fermentations. […] 200 μl of overnight cultures incubated in 2×YT medium were transferred into the flasks and placed in a shaker at a speed of 250 rpm. After adding 0.1 mM isopropyl-β-D-thiogalactoside (IPTG), the flasks were sealed by parafilm and the fermentation was performed for 48 hours at 30° C. The fermentation products were measured by HPLC.
# [4] = biological target: T4, Bacillus subtilis 5-keto-4-deoxy-D-glucarate dehydratase (YcbC) (Bacillus subtilis, UniProt P42235); assay: 5-keto-4-deoxy-D-glucarate dehydratase, coupled assay with KGSADH; type: biochemical; details: substrate from 0-20 mM D-galactarate, pH 7.5, 25° C.
# T4 construct: His; made in house; host or cells: E. coli BL21
# T4 sequence (P42235 whole entry): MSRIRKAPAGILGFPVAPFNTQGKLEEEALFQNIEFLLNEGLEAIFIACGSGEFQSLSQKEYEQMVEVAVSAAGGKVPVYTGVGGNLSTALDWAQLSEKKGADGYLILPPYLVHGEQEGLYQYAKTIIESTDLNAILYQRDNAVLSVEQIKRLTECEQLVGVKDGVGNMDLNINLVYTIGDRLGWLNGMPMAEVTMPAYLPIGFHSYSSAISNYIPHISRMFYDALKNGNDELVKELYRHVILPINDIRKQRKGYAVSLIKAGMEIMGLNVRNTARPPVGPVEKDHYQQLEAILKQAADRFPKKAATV
# Method: as §1
# [5] = biological target: T5, Burkholderia xenovorans LB400 D-xylose dehydrogenase (DR64_8447) (Paraburkholderia xenovorans, UniProt Q13FC8); assay: B. xenovorans D-xylose dehydrogenase, NADH generation at 340 nm; type: biochemical; details: D-xylose 0 to 10 mM, 1 mM NAD+
# T5 construct: gene from LB400 genomic DNA
# T5 sequence (Q13FC8 1-268): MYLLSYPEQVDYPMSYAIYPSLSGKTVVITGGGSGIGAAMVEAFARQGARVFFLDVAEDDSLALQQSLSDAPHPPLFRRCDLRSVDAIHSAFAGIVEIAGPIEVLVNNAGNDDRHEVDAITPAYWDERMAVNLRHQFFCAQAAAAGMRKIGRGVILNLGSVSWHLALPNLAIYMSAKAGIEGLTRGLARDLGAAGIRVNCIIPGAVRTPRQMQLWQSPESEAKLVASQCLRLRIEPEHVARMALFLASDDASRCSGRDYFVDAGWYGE
# Method: (§2) A series of enzymatic assays were conducted to estimate the initial activity as a function of starting substrate concentration. […] Kinetic constants (kcat/Km) for following enzymes were calculated with the same method.
# [6] = biological target: T6, Caulobacter crescentus D-xylose dehydrogenase (XylB) (Caulobacter vibrioides, UniProt B8H1Z0); assay: C. crescentus D-xylose dehydrogenase, NADH generation at 340 nm; type: biochemical; details: D-xylose 0 to 10 mM, 1 mM NAD+
# T6 construct: His; made in house; host or cells: E. coli BL21
# T6 sequence (B8H1Z0 1-248): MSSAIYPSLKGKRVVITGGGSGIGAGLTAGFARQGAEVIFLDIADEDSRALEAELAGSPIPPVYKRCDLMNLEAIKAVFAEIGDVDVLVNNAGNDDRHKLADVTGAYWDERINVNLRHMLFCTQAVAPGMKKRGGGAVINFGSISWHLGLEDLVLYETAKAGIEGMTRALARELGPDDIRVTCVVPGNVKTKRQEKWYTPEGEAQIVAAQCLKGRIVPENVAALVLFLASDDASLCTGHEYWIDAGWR
# Method: as §2
# [7] = 100 mM Tris-HCl, 5 mM MgCl2, pH 7.5, 30° C.
compound,measurement,setting,value
O=C(O)C(=O)C[C@H](O)CO [2-keto-3-deoxy-D-xylonate],kcat,[1],0.53 s⁻¹
same,kcat/Km,[1],260 M⁻¹ s⁻¹
same,kcat,"[2]; coupled assay, substrate from 0-20 mM D-xylonate, 1 mM NAD+, pH 7.5, 25° C.",4.7 s⁻¹
same,kcat compared to XylX of C. crescentus,[2]; higher kcat (4.7 s^−1) vs 0.53 s^−1,9 fold
O=C(O)C(=O)C[C@@H](O)CO [2-keto-3-deoxy-L-arabonate],Kivd activity on 2-keto-3-deoxy-L-arabonate,[3],not active
O=C(O)C(=O)C[C@H](O)[C@@H](O)C(=O)O [5-keto-4-deoxy-D-glucarate],"specific constant (kcat/Km), compared within D-galacturonate pathway",[4],lowest specific constant
OC1OC[C@@H](O)[C@H](O)[C@H]1O (stereo partly drawn) [D-xylose],Km,[5]; [7],1970 ± 120 µM
same,kcat,"[5]; pH 7.5, 30° C.",49.9 ± 4.2 s⁻¹
same,Km,[6]; [7],850 ± 80 µM
same,kcat,"[6]; pH 7.5, 30° C.",12.1 s⁻¹ and 12.1 ± 2.2 s⁻¹
